Experiments:
Format in all cases: functional
Rattus norvegicus [1] = assay: Antistress activity in Rattus norvegicus Sprague-Dawley (rat) assessed as inhibition of acute stress-induced increase in corticosterone level at 40 mg/kg, po (reference value: 465.7 +/- 15.77 ng/ml)
Rattus norvegicus [2] = assay: Antistress activity in Rattus norvegicus Sprague-Dawley (rat) assessed as inhibition of acute stress-induced plasma creatinine kinase activity at 40 mg/kg, po (reference value: 1115 +/- 29.43 IU/dl)
Rattus norvegicus [3] = assay: Antistress activity in Rattus norvegicus Sprague-Dawley (rat) assessed as inhibition of acute stress-induced hyperglycemia measured as glucose level at 40 mg/kg, po (reference value: 134.7 +/- 4.68 mg/dl)
Rattus norvegicus [4] = assay: Antistress activity in Rattus norvegicus Sprague-Dawley (rat) assessed as inhibition of acute stress-induced adrenal hypertrophy measured as adrenal gland weight per 100 g of body weight at 40 mg/kg, po (reference value: 10.20 +/- 0.69 mg)

SMILES	Activity (Rattus norvegicus [1]) [ng/mL]	Activity (Rattus norvegicus [2]) [IU/dl]	Activity (Rattus norvegicus [3]) [mg/dL]	Activity (Rattus norvegicus [4]) [mg]
COc1ccc(C2=NOC(Cc3ccc(OCCN4CCCC4)c(OC)c3)C2)c(OC)c1 (stereo unspecified)	429.8	934.7	127	9.82
COc1ccc(C2=NOC(Cc3ccc(OCCN4CCCCC4)c(OC)c3)C2)c(OC)c1 (stereo unspecified)	320	733.8	101.7	7.6
CCOc1ccc(CC2CC(c3cccc4ccccc34)=NO2)cc1OC (stereo unspecified)	292.3	625.7	72.83	7.89
COc1ccc(C2=NOC(Cc3ccc(OCc4ccccc4)c(OC)c3)C2)c(OC)c1 (stereo unspecified)	354.8	664.3	80.5	8.01
COc1cc(CC2CC(c3cccc4ccccc34)=NO2)ccc1OCCN1CCCC1 (stereo unspecified)	421	1074	125	10.58
COc1ccc(C2=NOC(Cc3ccc(OC(C)=O)c(OC)c3)C2)c(OC)c1 (stereo unspecified)	364.2	766.71	107.2	7.01
COc1cc(CC2CC(c3cccc4ccccc34)=NO2)ccc1OCc1ccccc1 (stereo unspecified)	444.7	994.5	116.3	9.6
COc1ccc(C2=NOC(Cc3ccc(OC)c(OC)c3)C2)c(OC)c1 (stereo unspecified)	446	1092	122	9.63
COc1cc(CC2CC(c3cccc4ccccc34)=NO2)ccc1OCCN1CCCCC1 (stereo unspecified)	282.5	603.7	78.17	7.23
COc1cc(CC2CC(c3cccc4ccccc34)=NO2)ccc1O (stereo unspecified)	417.2	998.5	86.24	9.86
COc1ccc(CC2CC(c3cccc4ccccc34)=NO2)cc1OC (stereo unspecified)	293.5	590	109.51	7.54
COc1ccc(C2=NOC(Cc3ccc(O)c(OC)c3)C2)c(OC)c1 (stereo unspecified)	432.2	1004	112	9.31
CCOc1ccc(CC2CC(c3ccc(OC)cc3OC)=NO2)cc1OC (stereo unspecified)	275.5	729.7	93	7.82
COc1cc(CC2CC(c3cccc4ccccc34)=NO2)ccc1OC(C)=O (stereo unspecified)	311.8	673	74.67	7.77
